Data published in patent publication US20180169085A1, “Combination Therapy for Hemorrhagic Injury” (Augusta University Reserch Institute, Inc., priority 2016, published 2018).
Entries after “also recorded” stand apart in the source; their conditions may differ.

Columns and labels:
[1] = test system: rats subjected to hemorrhagic injury (HI); test: Survival after hemorrhagic injury without resuscitation; type: in vivo, rat; conditions: p<0.05 versus HI+Veh; for survival time: FIG. 4
Text: Male Sprague Dawley rats (250-350 g) were obtained from Charles River Laboratory (Wilmington, Mass., USA). […] All animals were housed in Augusta University animal facility during the experiments.
The animals were fasted overnight (water allowed ad libitum) prior to the sham or hemorrhagic injury (HI) procedure. […] Femoral vein was cannulated to administer fluids. Surgical sites were bathed with bupivacaine. Sham animals were not subjected to bleeding or resuscitation. Upon awakening, the animals in HI groups were bled rapidly within the first 10 min to a MAP of 40±5 mmHg. The bleeding was continued for 45 min, maintaining the low MAP, until 60% of circulatory blood volume was withdrawn. The animals were maintained in the state of shock by maintaining MAP at 40±5 for another 45 min. During this time not more than 40% of the shed blood volume in the form of Ringer lactate was given to maintain the blood pressure. Resuscitation was performed with Ringer lactate for one hour on animals in the respective groups. Vehicle (dimethyl sulfoxide [DMSO]; 120 μL/mouse) or drug was administered at 10 min from the onset of resuscitation or immediately after shock period when there was no resuscitation.
Rats were subjected to HI and Veh, RSV or SRT1720 administered (n=5-6). (RSV: 10 mg/Kg body weight; SRT1720: 2 mg/Kg body weight.

[2] = test system: rats subjected to hemorrhagic injury (HI); test: Cardiac function (dP/dt) after hemorrhagic injury in rat model; type: in vivo; conditions: RSV treatment vs HI+Veh, n=4-6, p<0.05 vs sham, FIG. 1
Text: (§1) Male Sprague Dawley rats (250-350 g) were obtained from Charles River Laboratory (Wilmington, Mass., USA). The experiments performed in this study including surgical procedures were approved by the Institutional Animal Care and Use Committee (IACUC) at Augusta University. All animals were housed in Augusta University animal facility during the experiments. The animals were fasted overnight (water allowed ad libitum) prior to the sham or hemorrhagic injury (HI) procedure. Hemorrhagic procedure was as described before with some modification (Jian, B. et al., Mol. Med., 18:209-14 (2012). The animals were anesthetized with 2.5% isoflurane (Henry Schein, Dublin, Ohio, USA) and were placed on Plexiglas plate in a supine position. Isoflurane was administered in oxygen using an anesthetic vaporizer. Midline laparotomy (5 cm) was performed in both sham and HI animals to induce soft tissue trauma. Incision was closed aseptically in two layers with sutures. Two femoral arteries and one femoral vein were cannulated (PE-50 tubing), one artery was hooked up to a Blood Pressure Analyzer (Digi-Med; Micro-Med Inc., Louisville, Ky., USA) to monitor mean arterial pressure (MAP) and bleeding was performed through the other artery. Femoral vein was cannulated to administer fluids. Surgical sites were bathed with bupivacaine. Sham animals were not subjected to bleeding or resuscitation. […]

[3] = test system: rats subjected to hemorrhagic injury (HI); test: 10-day survival study after hemorrhagic injury with resuscitation; type: in vivo, rat
Text: Male Sprague Dawley rats (250-350 g) were obtained from Charles River Laboratory (Wilmington, Mass., USA). The experiments performed in this study including surgical procedures were approved by the Institutional Animal Care and Use Committee (IACUC) at Augusta University. All animals were housed in Augusta University animal facility during the experiments.
as §1, with “The” for “Male Sprague Dawley rats (250-350 g) were obtained from Charles River Laboratory (Wilmington, Mass., USA). The experiments performed in this study including surgical procedures were approved by the Institutional Animal Care and Use Committee (IACUC) at Augusta University. All animals were housed in Augusta University animal facility during the experiments. The”

Question: `O=C(Nc1ccccc1-c1cn2c(CN3CCNCC3)csc2n1)c1cnc2ccccc2n1` [SRT1720] was tested. Which survival time ([1]; SRT1720 2 mg/Kg body weight, without resuscitation) did it give?
Answer: The survival time was “Prolong Life”.

Question: How did the “+dp/dt and −dp/dt” value [2] turn out when `Oc1ccc(/C=C/c2cc(O)cc(O)c2)cc1` [resveratrol, 3,5,4-tribydroxystilbene] was run?
Answer: Its value is “restored”.

Question: What about the mean weight gain ([3]; 10-day survival study, RSV 10 mg/kg, data not shown) of the same compound?
Answer: The mean weight gain was “significantly improved”.

Question: What about the mortality ([3]; 10-day survival, RSV 10 mg/kg body weight along with resuscitation fluid, p<0.05, FIG. 3) of the same compound?
Answer: The mortality was “reduce mortality significantly; also recorded: significantly reduced”.

Question: And the survival time ([1]; RSV 10 mg/Kg body weight, absence of resuscitation)?
Answer: Its survival time is “survived for a significantly longer period of time”.

Question: With `O=C(O)c1cccnc1` [niacin, nicotinic acid] as the compound, how does the survival ([1]; niacin 1, 5, 10 mg/kg, without resuscitation, all curves, FIG. 6) read?
Answer: The survival was “prolonged survival”.
